Reference: US20240181000A1, “LGG-DERIVED PEPTIDES AND METHODS OF USE THEREOF” (Ohio State Innovation Foundation, priority 2021, published 2024)
Like-named read-outs stand apart in the source and are kept apart here. No end group written: not given here.

Assays:
APEC O78 = format: cell-based, E. coli
Description: Anti-APEC activity determination: The anti-APEC activity of peptides was determined in LB broth following CLSI guidelines. Briefly, overnight grown APEC O78 was adjusted to 5×10^5 CFU/mL concentration in fresh LB media. One-hundred microliters of APEC suspension was aliquoted into the wells of the 96-well plate. Peptides were added to the wells at 6 mM and 12 mM concentrations and incubated at 37° C. in TECAN Sunrise™ absorbance microplate reader with kinetic absorbance measurement set at every 30 mins for 12 h. Sterile media and DMSO (solvent) were used as controls. The growth inhibitory activity of the peptides against APEC was calculated using the formula: (OD600 DMSO treated well−OD600 peptide treated well)/OD600 DMSO treated well×100%.
The minimum inhibitory concentration (MIC) was determined for selected peptides (P1, P2, P3, and P4) using similar assay as above. Peptides were added to the wells of the 96-well plate at 6 mM, 9 mM, 12 mM, 15 mM, and 18 mM concentrations. The peptide concentration at which there is no visible APEC growth (no OD increase) was determined as MIC. Two independent experiments were conducted.
Arginine and lysine substituted peptide analogues: The non-essential amino acid residues identified in each peptide were substituted with arginine/lysine to test whether these substitutions enhance the anti-APEC activity of peptides. The MICs of arginine and lysine substituted peptide analogues ([…] (SEQ ID NO:37), […] (SEQ ID NO:38), […] (SEQ ID NO:39), KDENK (SEQ ID NO:41), PDEKK (SEQ ID NO:42), KDEKK (SEQ ID NO:43), KHTAPK (SEQ ID NO:45), VKTAPK (SEQ ID NO:46), VHTKPK (SEQ ID NO:47), and KKTKPK (SEQ ID NO:48)) were determined as above and compared with original peptides.

[1] = system: Salmonella enterica subsp. enterica serovar Typhimurium LT2 (ST); assay: Anti-Salmonella growth inhibition and MIC; format: cell-based; conditions: No treatment
Description: Primary screening for anti-Salmonella activity of peptides: The inhibitory effect of the peptides was accessed as described previously. ST was grown overnight and adjusted to 5×10^5 CFU/mL; 100 microliters of this measured concentration was placed into the wells of a 96 well plate. Peptides 1-6 were added to the well at 12 mM concentration and plate was incubated in a TECAN Sunrise™ absorbance microplate reader at 37° C. with kinetic absorbance measurements taken every 30 minutes for 12 h. The growth inhibitory activity was calculated with the formula (OD600 DMSO treated well-OD600 peptide treated well)/OD600 DMSO treated well×100%. DMSO treated, Salmonella challenged wells and sterile media with no Salmonella challenge were used as controls. This experiment was done twice to ensure the accuracy and reproducibility of the results.
(§1) MIC was determined by selecting peptide concentration at which there is no increased growth (no increase in OD), given indication of no ST growth. An independent repeat experiment was conducted.
Heat and protease tolerance of peptides: P1, P2, and P4 were heated for 6 minutes at 86° C. or treated with protease proteinase K, 200 μg/mL at 50° C. for 30 minutes. After which, the treated and/or heated peptides at their respective MICs were evaluated in the inhibition assay with Salmonella. The protocol from above was repeated in the Tecan with the same controls. […]

[2] = system: Salmonella enterica subsp. enterica serovar Enteritidis (SE); format: cell-based; conditions: No treatment
Description: as §1
Heat and protease tolerance of peptides: P1, P2, and P4 were heated for 6 minutes at 86° C. or treated with protease proteinase K, 200 μg/mL at 50° C. for 30 minutes. After which, the treated and/or heated peptides at their respective MICs were evaluated in the inhibition assay with Salmonella. The protocol from above was repeated in the Tecan with the same controls.
To analyze the perceived efficacy of arginine and lysine substitutes reported in previous studies, specific amino acid residues in P1 and P2 were replaced with lysine or arginine to test if the alliterations enhanced anti-Salmonella (ST and SE) activity. The MICs of the arginine or lysine substituted peptides ([…] (SEQ ID NO:37), […] (SEQ ID NO:38), […] (SEQ ID NO:39), KDENK (SEQ ID NO:41), PDEKK (SEQ ID NO:42), KDEKK (SEQ ID NO:43), KHTAPK (SEQ ID NO:45)) were determined as described early. Two independent experiments were conducted to ensure accuracy.

S. typhimurium = assay: P1 and P2 in drinking water, S. typhimurium infected chickens; format: in vivo; conditions: 100 mg/L in drinking water, 7 dpi
Description: Both the P1 and P2 at 200 mg/L and 100 mg/L concentrations reduced S. typhimurium colonization by 0.78 (p<0.05) and 0.69 (p<0.05) log CFU/gm, respectively.

Substance	MIC50 (APEC O78) [mM]	MIC (APEC O78; 100% APEC growth inhibition) [mM]	MIC against ST [1] [mM]	MIC against SE [2] [mM]	Reduction of S. typhimurium colonization in ceca (S. typhimurium) [log CFU/gm]	MIC (APEC O78) [mM]
PDENK [Peptide P2, PDENK]	9.5	12	15	15	0.69	–
MLNERVK [Peptide P4, MLNERVK]	20.0	–	18	–	–	> 18
